Five molecules from patent publication US20030140370A1, “Fungal glyoxal oxidases” (priority 2001, published 2003) can be followed below.

One experiment addresses glyoxal oxidase (Glo1) (Ustilago maydis, UniProt Q7Z868). The experiment can be described thus: Enzyme assay for identifying glyoxal oxidase inhibitors (Amplex Red/HRP coupled, cells of overproducer strain Bay-CA95). It is filed as biochemical. The note with it: negative decimal logarithm of molar IC50; intact Bay-CA95 cells, 10 mM methylglyoxal, 9 hours at 30° C., fluorescence 550/595 nm; read-out: pI50 (converted). An excerpt: The activity of glyoxal oxidase in vitro and in vivo, for example in the U. maydis cells according to the invention produced as described in Example 3 (CA95) can be detected on the basis of the conversion of the substrate methylglyoxal, exploiting the following reaction:
Methylglyoxal+O2→pyruvate+H2O2
H2O2+10-acetyl-3,7-dihydroxyphenoxazine (Amplex Red®)→resorufin+H2O
Amplex Red® reacts with H2O2 in a 1:1 stoichiometry, giving rise to resorufin (7-hydroxy-3H-phenoxazin-3-one sodium salt). The fluorescence is measured at an excitation wavelength of 550 nm and an emission of 595 nm. A substrate concentration of 10 mM methylglyoxal was employed in the assay. When using intact cells, it must be taken into consideration that the glyoxal oxidase concentration is low and that the reaction must therefore be allowed to proceed longer. Thus, for example, very good readings were obtained after incubation for 9 hours.
The enzyme assay was carried out in a total volume of 50 μl. To this end, the substances to be assayed were introduced in 10 μl substrate solution (50 mM methylglyoxal, 2.5% (v/v) DMSO) into a 384 microtitre plate. The KM value of glyoxal oxidase for methylglyoxal had previously been determined (cf. FIG. 14). The concentration of the candidate compounds to be tested for an inhibitory effect was such that the final concentration of the substances in the assay carried out was 10 μM. In the next step, 20 μl of cell solultion (cells of the overproducer strain Bay-CA95 (OD600=5); 0.2 M 2,2-dimethyl succinate buffer, pH 5, cooled at 4° C.) were added. 20 μl of detection solution (125 μM Amplex Red™ reagent (20 mM stock solution in 100% DMSO), 2.5 U/ml horseradish peroxidase, 62.5 mM sodium phosphate buffer, pH 7.4) were added to the mixture. The mixture was incubated for 9 hours at 30° C. Then, the increase in fluorescence was measured at λ=550 nm (absorption) and λ=595 nm (emission), the results of a measurement in the presence of Bay-CA95 cells being compared with the results of a measurement in the presence of the wild-type U. maydis 518 cells (see also FIG. 15). The substances used in the assay were present in the following final concentrations: c(2,2-dimethyl succinate/NaOH)=40 mM, c(Amplex Red® (Molecular Probes))=50 μM, c(horseradish peroxidase)=0.001 U/μl, c(methylglyoxal)=10 mM, OD (Bay-CA95)=1, c(sodium phosphate buffer)=25 mM. The inhibitory effect of a candidate compound could be seen from the decrease in relative fluorescence, and inhibitors were identified. […] Table II also gives pI50 values which have been determined for the individual compounds. The pI50 value is the negative decimal logarithm of what is known as the IC50 value, which indicates the molar concentration of a substance which leads to 50% inhibition of the enzyme. For example, a pI50 value of 8 corresponds to half the maximum inhibition of the enzyme at a concentration of 10 nM.

For a further experiment, the system named is Venturia inaequalis. The experiment in a line: Venturia inaequalis (apple scab) protective test on young plants. Particulars: protective action, concentration of 250 ppm; 0% = control, 100% = no disease observed. It is filed as in vivo. The protocol:
The antifungal action of the compounds (protective action) was tested, inter alia, on Venturia inaequalis as an example. This fungus causes what is known as apple scab, which leads to black and green mottled leaves in pomaceous fruit trees. The lesions enlarge and coalesce. Leaves which are severely infested die, which may lead to the trees losing all their leaves in summer. The infection also has an adverse effect on fruit set. Scab on fruits manifests itself in grey lesions on the skin, with suberification and deformed fruits.
To prepare a suitable preparation of active compound, 1 part by weight of active compound is mixed with, for example, 24.5 parts by weight of acetone and 24.5 parts by weight of dimethylformamide and 1.0 part by weight of alkylaryl polyglycol ether as emulsifier, and the concentrate is diluted with water to the desired concentration.
To test for protective activity, young plants are sprayed with the preparation of the active compound at the application rate stated. After the spray coating has dried on, the plants are inoculated with an aqueous conidial suspension of the apple scab pathogen Venturia inaequalis and then remain in an incubation cabinet for 1 day at approximately 20° C. and 100% relative atmospheric humidity. […]
1 to 12 days post-inoculation, the test is evaluated. […]

glyoxal oxidase (Glo1), sequence (Q7Z868 entry or part of it): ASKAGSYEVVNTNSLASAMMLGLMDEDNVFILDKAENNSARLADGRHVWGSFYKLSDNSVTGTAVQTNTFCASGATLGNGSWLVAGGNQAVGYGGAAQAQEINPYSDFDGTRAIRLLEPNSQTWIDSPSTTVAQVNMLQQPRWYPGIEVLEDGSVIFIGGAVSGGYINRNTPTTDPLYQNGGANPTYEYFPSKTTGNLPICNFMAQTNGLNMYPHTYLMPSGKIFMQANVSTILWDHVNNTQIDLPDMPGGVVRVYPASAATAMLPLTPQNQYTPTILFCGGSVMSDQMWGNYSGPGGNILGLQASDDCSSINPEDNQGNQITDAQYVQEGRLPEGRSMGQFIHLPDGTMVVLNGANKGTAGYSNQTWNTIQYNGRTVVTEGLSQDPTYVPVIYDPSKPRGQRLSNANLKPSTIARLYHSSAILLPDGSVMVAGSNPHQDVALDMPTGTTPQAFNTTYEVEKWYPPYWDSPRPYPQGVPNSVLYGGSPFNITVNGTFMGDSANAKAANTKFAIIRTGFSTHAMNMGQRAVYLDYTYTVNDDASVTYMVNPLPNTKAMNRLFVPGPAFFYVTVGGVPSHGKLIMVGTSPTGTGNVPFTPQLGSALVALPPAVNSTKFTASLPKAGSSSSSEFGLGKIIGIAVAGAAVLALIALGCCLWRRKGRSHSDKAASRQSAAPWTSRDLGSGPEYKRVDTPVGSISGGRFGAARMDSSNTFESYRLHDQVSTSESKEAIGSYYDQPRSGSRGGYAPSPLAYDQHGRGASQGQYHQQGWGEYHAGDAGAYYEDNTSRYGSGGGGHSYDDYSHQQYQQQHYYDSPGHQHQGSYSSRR

As to `Nc1ccc(Oc2ccc(N)cc2)cc1` [Example 3], the IC50 at glyoxal oxidase (Glo1) is 5.62 µM.

With `CCOc1ccc(NCc2ccccc2O)cc1` [Example 2], on glyoxal oxidase (Glo1), the IC50 is 4.07 µM.

`C[Si](C)(C)O[Si](C)(CCCNC(=O)/C=C\c1cc(OC(O)C(O)C(O)C(O)CO)c(O)cc1O)O[Si](C)(C)C` (stereo not drawn) [Example 4]: the IC50 on glyoxal oxidase (Glo1) was 3.8 µM. In addition, the efficacy in the experiment on Venturia inaequalis was 45%.

For `COc1ccc(NCc2ccccc2O)cc1` [Example 5], on glyoxal oxidase (Glo1), the IC50 was 3.98 µM.

For `COc1ccc(C(=O)Nc2ccccc2)cc1N` [Example 1], at glyoxal oxidase (Glo1), the IC50 was 11 µM.
